Molecules are shown by their SMILES.

Series [1] addresses T1, AAK1 (30-330) protein (Homo sapiens, UniProt Q2M2I8).
T1 construct: (His)6x (N); TEV protease cleavage site (N); made in house; host or cells: Escherichia coli BL21(DE3)
The series is described as follows: CETSA test of binding ability to AAK1 protein (Western blot). As for the experimental part: Experimental objective: To detect the binding ability of compounds to AAK1 protein by means of a CETSA experiment.
Background principle: The CETSA experiment is a molecular detection means for measuring the affinity between drugs and target proteins. […] When a candidate drug is co-incubated with a target protein, if the candidate drug is an inhibitor of AAK1, it can bind to AAK1. […] On the contrary, the stability of the AAK1 protein after heating will be poorer, and the amount of the detected protein will be lower. In this way, the binding ability of the drug to the target protein can be evaluated, which is used for the screening of AAK1 protein inhibitors.
(§1) Expression of AAK1 (30-330) protein: The AAK1 sequence (residues 30-330) was cloned into the pET24N vector with an N-terminal (His)6x tag and a tobacco etch virus (TEV) protease cleavage site. The constructed vector was transformed into Escherichia coli BL21(DE3). When the bacteria were cultured with shaking to reach an OD value of 0.6, 1 mM IPTG was added. […] The bacterial cells were collected and subjected to ultrasonic disruption. The supernatant was obtained by centrifugation, and the protein was purified using Ni-NTA. After dialysis, the concentration and purity of the protein were determined.
CETSA sample preparation: Samples were incubated with candidate drugs, control drugs, and control reagents separately for 30 minutes. Each group of samples was heated at approximately 10 pre-set temperature points. After being returned to room temperature, the samples were centrifuged at 20000 g, and the supernatants were collected. Protein samples were denatured by heating at 100°C for 10 minutes with a sample buffer. After the samples were returned to room temperature, Western blot detection was performed on them; the protein loading amount was controlled at 20 µg. […] The same operations were followed, and Western blot detection was conducted. Protein electrophoresis: The voltage for the stacking gel was set at 60 V, and that for the separating gel was set at 120 V. After electrophoresis, electrotransfer was initiated. Electrotransfer conditions were set at 250 mA for 2 h. Blocking with 5% BSA was performed for 1 h. A specific primary antibody was added, and incubation was carried out overnight at 4°C on a shaker. Washing with TBST was conducted 4 times, with 2.5 minutes each time. A secondary antibody was incubated on a shaker at room temperature for 1 h. Washing with TBST was conducted 4 times, with 2.5 minutes each time. ECL was used for development to detect the expression levels of AAK1 protein in different groups and at each temperature point. Western blot bands were processed and converted using Image J and GraphPad software to calculate EC50.
On the technique in general: In western blotting, separated proteins are transferred to a membrane and probed.

The target of another series is T2, AAK1 (Homo sapiens, UniProt Q2M2I8).
T2 construct: HA; expressed in transfected cells; host or cells: 293T cells
T2 sequence (Q2M2I8 whole entry): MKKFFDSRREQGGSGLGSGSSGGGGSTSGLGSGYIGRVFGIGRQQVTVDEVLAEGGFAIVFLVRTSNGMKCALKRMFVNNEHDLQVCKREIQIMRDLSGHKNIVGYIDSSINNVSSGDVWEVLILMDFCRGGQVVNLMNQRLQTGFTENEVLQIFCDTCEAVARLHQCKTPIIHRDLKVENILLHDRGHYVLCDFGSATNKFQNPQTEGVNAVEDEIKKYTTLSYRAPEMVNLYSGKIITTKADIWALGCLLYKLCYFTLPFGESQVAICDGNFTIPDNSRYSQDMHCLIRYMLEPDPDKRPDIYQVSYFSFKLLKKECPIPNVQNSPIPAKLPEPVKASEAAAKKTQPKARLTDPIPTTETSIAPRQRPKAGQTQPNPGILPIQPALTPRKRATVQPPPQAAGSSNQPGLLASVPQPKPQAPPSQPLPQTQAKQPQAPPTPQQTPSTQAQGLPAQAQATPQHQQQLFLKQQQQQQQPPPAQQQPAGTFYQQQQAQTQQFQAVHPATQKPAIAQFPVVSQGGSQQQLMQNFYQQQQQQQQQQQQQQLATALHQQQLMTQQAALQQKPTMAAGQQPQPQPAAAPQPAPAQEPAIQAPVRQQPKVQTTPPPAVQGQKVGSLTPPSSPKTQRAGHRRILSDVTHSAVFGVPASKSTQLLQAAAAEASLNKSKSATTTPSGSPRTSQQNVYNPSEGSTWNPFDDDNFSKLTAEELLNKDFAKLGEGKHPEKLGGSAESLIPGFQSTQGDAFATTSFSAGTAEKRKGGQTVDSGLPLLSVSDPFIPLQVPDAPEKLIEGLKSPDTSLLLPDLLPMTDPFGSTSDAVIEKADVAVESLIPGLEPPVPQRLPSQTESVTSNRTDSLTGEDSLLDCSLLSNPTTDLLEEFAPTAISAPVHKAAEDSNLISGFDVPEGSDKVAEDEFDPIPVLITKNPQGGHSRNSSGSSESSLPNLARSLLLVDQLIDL
The series is described as follows: Effect on AP2M1 phosphorylation in 293T cells co-transfected with AAK1 and AP2M1 (Western blot, anti-p-AP2M1). The class given is cell-based. The conditions noted are these: p-AP2M1 level, incubated 3 h. The source says: Experimental objective: The objective of this test example is to determine the effect of compounds on AP2M1 phosphorylation in cells.
Background principle: Adaptor-associated kinase 1 (AAK1), also known as AP2-associated kinase 1, is a 104 kDa serine/threonine kinase. AAK1 interacts with the adaptor protein 2 (AP2) complex and phosphorylates the threonine residue in the micro-subunit of AP2 (AP2M1), thereby increasing its binding affinity for certain tyrosine-based or dileucine-based sorting signals of some membrane receptors. The inhibitory effect of compounds on AAK1 was evaluated by detecting the phosphorylation level of AP2M1 in cells, so as to screen candidate compounds.
On the second day, each T25 flask was co-transfected with 16 µg of plasmids (1 µg of AAK1/HA/pIRES and 15 µg of Flag/AP2MI/pcDNA) using a Lip2000 transfection reagent. On the third day, the cells were digested and resuspended, centrifuged at 1000 rpm for 5 minutes, and then seeded into 24-well plates at 450 µl per well (2 × 10^5 cells/well). Gradient dilutions of the compounds to be tested were prepared, 50 µl was added to each well, mixed thoroughly, and incubated at 37°C for 3 h. DMSO was set as a control, and cells without plasmid transfection were set as a blank control. After incubation, the cells were collected and washed twice with PBS. The cells were lysed on ice for 30 minutes using a cell lysis buffer containing the protease inhibitor PMSF. The concentration of protein samples was determined using a BCA kit. Protein electrophoresis: The voltage for the stacking gel was set at 60 V, and that for the separating gel was set at 120 V. After electrophoresis, electrotransfer was initiated. Electrotransfer conditions were set at 250 mA for 2 h. Blocking with 5% BSA was performed for 1 h. A specific primary antibody, anti-p-AP2M1, was added, and incubation was carried out overnight at 4°C on a shaker. Washing with TBST was conducted 4 times, with 2.5 minutes each time. A secondary antibody was incubated on a shaker at room temperature for 1 h. Washing with TBST was conducted 4 times, with 2.5 minutes each time. ECL was used for development to detect the expression level of p-AP2M1. Western blot bands were processed and converted using Image J and GraphPad software to calculate IC50.
IC50 (half maximal inhibitory concentration) refers to the half-inhibitory concentration of the measured antagonist. It can indicate the concentration of a certain drug or substance (inhibitor) that achieves half of the inhibition effect on certain biological processes (or certain substances involved in these processes, such as enzymes, cellular receptors, or microorganisms).

The target in series [2] is T1, AAK1 (30-330) protein. The series is described as follows: AAK1 kinase assay (ADP generated, detected by HPLC). Format: biochemical. The following applies: 3.5 nM AAK1, 22 µM ATP, 25°C, 3 h.
Excerpt: Experimental objective: The objective of this test example is to test the effect of compounds on AAK1 kinase function.
Background principle: AAK1 phosphorylates the threonine residue in the micro-subunit of AP2 (AP2M1). In this process, ATP provides phosphate groups to generate ADP. Therefore, the activity of AAK1 kinase can be evaluated by detecting the amount of ADP generated.
as §1
The reaction mixture was incubated in a metal bath at 25°C for 3 h. The reaction was terminated by adding 1% SDS, and the amount of ADP generated was detected by HPLC. IC50 values were calculated using GraphPad software.

Series [3] concerns streptozotocin (STZ)-induced peripheral neuropathic pain (DPNP) in diabetic rat models. The series is described as follows: Efficacy test in diabetic peripheral neuropathic pain (DPNP), Von Frey pain threshold. Format: in vivo, SD rats. How it is done: Experimental methods: After the adaptation period, the rats were tested for baseline plantar pain threshold using the Von Frey (Up-Down method) before modeling. Subsequently, except for the blank control group, all other rats were fasted for 16 hours with free access to water and then intraperitoneally injected with streptozotocin for modeling (65 mg/kg; 2 mL/kg). One week after modeling, blood was collected from the tail tip to detect blood glucose levels after a 4-hour fast. Rats with blood glucose levels higher than 16.7 mmol/L were considered diabetic.

Series [4] is described as follows: Pharmacokinetic test in SD rats. The following applies: rat, plasma, po, 3 mg/kg.
Experimental: Experimental objective: The objective of this experimental example is to test the pharmacokinetic profile of compounds in SD rats.
Route of administration: The animals were weighed before administration, and the dose was calculated based on their body weight. Administration was performed via intravenous injection and oral gavage.
Blood collection time points: After administration, for IV group: 0.083 h, 0.25 h, 0.5 h, 1 h, 2 h, 4 h, 8 h, and 24 h; for PO group: 0.25 h, 0.5 h, 1 h, 2 h, 4 h, 6 h, 8 h, and 24 h. Blood was collected via the jugular vein, with approximately 0.2 mL collected for each sample. The blood samples were anticoagulated with K2-EDTA and placed on ice after collection.
Plasma sample processing: After collection, the blood samples were placed on ice and centrifuged within 1 hour to separate plasma (centrifugation conditions: 6800g, 6 minutes, 2-8°C). The plasma samples were stored in a -80°C refrigerator before analysis.
Result analysis: Pharmacokinetic parameters were calculated using Phoenix WinNonlin 7.0 based on the plasma concentration data at different time points.
Series [5] in a line: Blood-brain distribution in DPNP model rats. The conditions noted are these: 1 mg/kg.
Experimental: Experimental objective: This experiment aims to investigate the analgesic effect of test compounds on streptozotocin (STZ)-induced peripheral neuropathic pain (DPNP) in diabetic rat models and the brain-blood distribution of the compounds associated with the efficacy, via single oral gavage (ig.) administration.
After successful modeling, the baseline plantar pain threshold of the rats was tested using the Von Frey (UP-Down method) as the baseline pain threshold before administration, and the rats were evenly grouped according to their pain thresholds. The groups included a blank control group, a model group, a positive control group (1 mg/kg), a Compound 26 (0.5 mg/kg) group, and a Compound 26 (1 mg/kg) group. The next day, the rats were administered the vehicle or corresponding drugs. At 2 h, 3 h, 4 h, 5 h, and 6 h after administration, the pain threshold of the plantar region on the affected side of rats was determined using Von Frey filaments to calculate the pain threshold improvement rate of the test compounds against neuropathic pain in diabetic rats, and to observe the time-effect relationship. After the experiment, rats from groups G3-G5 (numbers 1-3 per group) were sacrificed, and plasma and brain tissue samples were collected for testing.
[6] abbreviates: DPNP model rats, 6 h after intragastric administration.

T1 sequence (Q2M2I8 30-330): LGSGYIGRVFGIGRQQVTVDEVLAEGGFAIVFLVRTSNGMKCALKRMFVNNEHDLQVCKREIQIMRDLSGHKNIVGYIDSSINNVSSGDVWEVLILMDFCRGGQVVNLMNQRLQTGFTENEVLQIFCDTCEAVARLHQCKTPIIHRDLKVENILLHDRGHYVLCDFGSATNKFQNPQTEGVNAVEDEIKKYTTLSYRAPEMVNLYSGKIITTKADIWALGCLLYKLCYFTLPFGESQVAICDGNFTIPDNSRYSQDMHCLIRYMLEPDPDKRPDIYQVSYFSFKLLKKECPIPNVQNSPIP

By EC50 is commonly meant the concentration needed to bring the measured effect to its halfway point. A high value points to lower potency in that assay. A word on the IC50: it is the concentration that inhibits the measured activity by half. Read a low IC50 as greater potency in that assay. A word on the AUC(0-inf): it is total exposure, with the tail of the curve extrapolated. A low value points to low exposure. Broadly, the AUC(0-t) is the area under the concentration-time curve up to a stated or last time point. High values mean high exposure, low ones low exposure. In general, Cmax refers to the peak of the concentration-time curve. The term MRT inf denotes the average time that molecules of a dose stay in the body. By MRT last is commonly meant the average time that molecules of a dose stay in the body. Broadly, the Tmax is the time at which the peak concentration occurs. In general, half-life refers to the time in which the quantity being followed falls by half. The term Kp denotes tissue or fluid exposure divided by exposure in the circulation. Consider `CC(C)C[C@](C)(N)COc1ccc(-c2ccnc(C(F)F)c2)nc1C(F)F` [BMS-986176, reference compound], for which, at AAK1 (30-330) protein [1], the concentration for a half-maximal effect (EC50) was 100 to 1000 nM. Moreover, the IC50 on AAK1 lay in the range of 100 to 1000 nM. Further, the half-inhibitory concentration (IC50) at AAK1 (30-330) protein [2] amounted to 260 nM. In addition, in series [3] (1 mg/kg group, after modeling, before administration, x±s, n=5), the “MWT (g) After modeling” value worked out at 7.00 ± 1.83 g. Further, the “Pain threshold improvement rate 2h” value in series [3] (1 mg/kg single ig., 2 h) turned out to be 64.51. Further, the “MWT (g) 2h” value in series [3] (1 mg/kg single ig., 2 h after administration, x±s, n=5) worked out at 10.38 ± 2.59 g. For the same molecule, in series [3] (1 mg/kg single ig., 3 h), the “Pain threshold improvement rate 3 h” value was determined as 42.24. Moreover, the “MWT (g) 3 h” value in series [3] (1 mg/kg single ig., 3 h after administration, x±s, n=5) is 7.51 ± 4.29 g. Moreover, the “Pain threshold improvement rate 4h” value in series [3] (1 mg/kg single ig., 4 h) turned out to be 20.35. Further, in series [3] (1 mg/kg single ig., 4 h after administration, x±s, n=5), the “MWT (g) 4 h” value stood at 5.06 ± 2.76 g. The “Pain threshold improvement rate 5 h” value in series [3] (1 mg/kg single ig., 5 h) was 16.32. In addition, the “MWT (g) 5 h” value in series [3] (1 mg/kg single ig., 5 h after administration, x±s, n=5) is 4.82 ± 1.07 g. Besides, the “Pain threshold improvement rate 6h” value in series [3] (1 mg/kg single ig., 6 h) amounted to 20.85. In addition, the “MWT (g) 6h” value in series [3] (1 mg/kg single ig., 6 h after administration, x±s, n=5) is 4.63 ± 0.64 g. The molecule also gave a duration of analgesia in series [3] (1 mg/kg, time after administration) not above 4 h. Moreover, in series [4], the AUC(0-inf) is 1160 ng·h/mL, the area under the curve AUC(0-t) stood at 1070 ng·h/mL, the Cmax amounted to 85.6 ng/mL and the MRT inf was found to be 9.5 h. Besides, in series [4], the mean residence time MRT last amounted to 7.52 h, the time of peak concentration (Tmax) is 3.33 h and the half-life was 6.32 h. Moreover, in series [5] (setting [6]), the “Brain tissue concentration” value was found to be 26.94 ng/mL, the “Brain tissue concentration*” value came out at 296.36 ng/g and the “Plasma concentration” value came out at 34.38 ng/mL. The molecule further yielded a partition ratio (Kp) at 6 h in series [5] (rat, brain, po) of 8.62.
Turning to `CC(C)C[C@](C)(N)COc1ccc(-c2c[nH]c3ncc(C(F)F)cc23)cc1C(F)(F)F` [Compound 33], the concentration for a half-maximal effect (EC50) on AAK1 (30-330) protein [1] lay in the range of 10 to 100 nM. The concentration for half-maximal inhibition (IC50) was 10 to 100 nM against AAK1 and 69.5 nM on AAK1 (30-330) protein [2].
The molecule `CC(C)C[C@](C)(N)COc1ncc(-c2c[nH]c3ncc(C(F)F)cc23)c(C(F)(F)F)n1` [Compound 39] showed an EC50 at AAK1 (30-330) protein [1] of 10 to 100 nM. Further, the 50% inhibitory concentration (IC50) against AAK1 was 10 to 100 nM; at AAK1 (30-330) protein [2], 101 nM.
Take `CC(C)C[C@](C)(N)COc1ccc(-c2cn(C)c3ncc(F)cc23)nc1C(F)F` [Compound 43, (S)-1-{[2-(difluoromethyl)-6-(5-fluoro-1-methyl-1H-pyrrolo[2,3-b]pyridin-3-yl)pyridin-3-yl]oxy}-2,4-dimethylpentan-2-amine]: the EC50 at AAK1 (30-330) protein [1] is less than 10 nM. For the same molecule, the IC50 against AAK1 is less than 10 nM; against AAK1 (30-330) protein [2], 12.1 nM.
For the molecule `CC(C)C[C@](C)(N)COc1ccc(-c2c[nH]c3ncc(Cl)cc23)nc1C(F)F` [Compound 44, (S)-1-{[6-(5-chloro-1H-pyrrolo[2,3-b]pyridin-3-yl)-2-(difluoromethyl)pyridin-3-yl]oxy}-2,4-dimethylpentan-2-amine], the concentration giving a half-maximal response (EC50) on AAK1 (30-330) protein [1] is less than 10 nM. The half-maximal inhibitory concentration (IC50) against AAK1 was less than 10 nM; against AAK1 (30-330) protein [2], 8.2 nM.
In the case of `Cc1cnc2[nH]cc(-c3ccc(OC[C@@](C)(N)CC(C)C)c(C(F)F)n3)c2c1` [Compound 45, (S)-1-{[2-(difluoromethyl)-6-(5-methyl-1H-pyrrolo[2,3-b]pyridin-3-yl)pyridin-3-yl]oxy}-2,4-dimethylpentan-2-amine diformate], the EC50 at AAK1 (30-330) protein [1] is less than 10 nM. Besides, the IC50 was less than 10 nM at AAK1 and 6.5 nM on AAK1 (30-330) protein [2].

Source of the values: patent EP4692089A1, “NITROGEN-CONTAINING HETEROCYCLIC COMPOUND AS AAK1 INHIBITOR” (Alicorn Pharmaceutical Co., Ltd., priority 2023, dated 2024).
